Where two headings read alike, the source gives them in different places.
Columns and labels:
Assay type in all cases: biochemical
ErbB2 = target: T1, ErbB2 (Homo sapiens, UniProt P04626); assay: Kinase inhibition assay (33P transfer), ErbB2; details: read-out: ErbB2-2
T1 construct: Kinases are expressed as either kinase domains or full length constructs; made in house
Excerpt: The inhibitor compounds described herein are screened in the following manner. Kinases suitable for use in the following protocol to determine kinase activity of the compounds described herein include, -but are not limited to: Lck, Lyn, Src, Fyn, Syk, Zap-70, Itk, Tec, Btk, EGFR, ErbB2, Kdr, Flt-1, Flt-3, Tek, c-Met, InsR, and AKT.
Kinases are expressed as either kinase domains or full length constructs fused to glutathione S-transferase (GST) or polyHistidine tagged fusion proteins in either E. colior Baculovirus-High Five expression systems. They are purified to near homogeneity by affinity chromatography essentially as previously described (Lehr et al., 1996; Gish et al., 1995). In some instances, kinases are co-expressed or mixed with purified or partially purified regulatory polypeptides prior to measurement of activity.
Kinase activity and inhibition are measured essentially by established protocols (Braunwalder et al., 1996). Briefly, The transfer of ^33PO4 from ATP to the synthetic substrates poly(Glu, Tyr) 4:1 or poly(Arg, Ser) 3:1 attached to the bioactive surface of microtiter plates serves as the basis to evaluate enzyme activity. After an incubation period, the amount of phosphate transferred is measured by first washing the plate with 0.5% phosphoric acid, adding liquid scintillant, and then counting in a liquid scintillation detector. The IC50 is determined by the concentration of compound that causes a 50% reduction in the amount of […] incorporated onto the substrate bound to the plate.

Kdr = target: T2, Kdr (Homo sapiens, UniProt P35968); assay: Kinase inhibition assay (33P transfer), Kdr
T2 construct: Kinases are expressed as either kinase domains or full length constructs; made in house
Method in brief: (§1)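 Measured by scintillation: radiolabelled phosphate added by tagged recombinant kinases to poly(Glu,Tyr) 4:1 or poly(Arg,Ser) 3:1 attached to microtiter wells, counted once free label was washed away with 0.5% phosphoric acid.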

PDGFRB = target: T3, PDGFRB (Homo sapiens, UniProt P09619); assay: Kinase inhibition assay (33P transfer), PDGFRB; details: read-out: PDGFRB-1
T3 construct: Kinases are expressed as either kinase domains or full length constructs; made in house

EGFR = target: T4, EGFR (Homo sapiens, UniProt P00533); assay: Kinase inhibition assay (33P transfer), EGFR; details: Table 2, kinase inhibition class; read-out: EGFR-1
T4 construct: Kinases are expressed as either kinase domains or full length constructs; made in house
Method in brief: (§2)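 Using immobilised substrate copolymers (poly(Glu,Tyr) 4:1; poly(Arg,Ser) 3:1) and [33P]ATP, purified fusion kinases were allowed to react; plates were then rinsed in 0.5% phosphoric acid and counted in a scintillation detector. Half-maximal inhibition of label transfer defines IC50.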

Itk = target: T5, Itk (Homo sapiens, UniProt Q08881); assay: Kinase inhibition assay (33P transfer), Itk; details: read-out: Itk-1
T5 construct: Kinases are expressed as either kinase domains or full length constructs; made in house
T5 sequence (Q08881 1-620): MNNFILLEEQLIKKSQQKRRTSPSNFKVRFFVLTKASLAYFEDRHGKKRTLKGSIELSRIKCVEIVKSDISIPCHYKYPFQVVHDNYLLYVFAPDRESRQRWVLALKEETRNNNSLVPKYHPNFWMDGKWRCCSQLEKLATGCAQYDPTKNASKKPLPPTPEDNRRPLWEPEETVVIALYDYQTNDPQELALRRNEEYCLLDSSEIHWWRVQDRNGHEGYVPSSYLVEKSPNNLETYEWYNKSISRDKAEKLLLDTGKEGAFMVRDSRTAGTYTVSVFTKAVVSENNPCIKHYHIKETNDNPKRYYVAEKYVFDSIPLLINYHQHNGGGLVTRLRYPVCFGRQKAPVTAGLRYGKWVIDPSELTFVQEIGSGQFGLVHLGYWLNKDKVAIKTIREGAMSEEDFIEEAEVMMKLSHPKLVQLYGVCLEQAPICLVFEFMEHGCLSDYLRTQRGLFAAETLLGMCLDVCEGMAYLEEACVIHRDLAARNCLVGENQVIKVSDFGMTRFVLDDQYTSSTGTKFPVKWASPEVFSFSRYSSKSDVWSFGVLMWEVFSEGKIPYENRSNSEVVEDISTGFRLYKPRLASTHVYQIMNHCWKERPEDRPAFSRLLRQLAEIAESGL
Method in brief: as §2

Lck = target: T6, Lck (Homo sapiens, UniProt P06239); assay: Kinase inhibition assay (33P transfer), Lck; details: read-out: Lck-1
T6 construct: Kinases are expressed as either kinase domains or full length constructs; made in house
Method in brief: as §1

Zap-70 = target: T7, Zap-70 (Homo sapiens, UniProt P43403); assay: Kinase inhibition assay (33P transfer), Zap-70; details: read-out: Zap-1
T7 construct: Kinases are expressed as either kinase domains or full length constructs; made in house
T7 sequence (P43403 1-619): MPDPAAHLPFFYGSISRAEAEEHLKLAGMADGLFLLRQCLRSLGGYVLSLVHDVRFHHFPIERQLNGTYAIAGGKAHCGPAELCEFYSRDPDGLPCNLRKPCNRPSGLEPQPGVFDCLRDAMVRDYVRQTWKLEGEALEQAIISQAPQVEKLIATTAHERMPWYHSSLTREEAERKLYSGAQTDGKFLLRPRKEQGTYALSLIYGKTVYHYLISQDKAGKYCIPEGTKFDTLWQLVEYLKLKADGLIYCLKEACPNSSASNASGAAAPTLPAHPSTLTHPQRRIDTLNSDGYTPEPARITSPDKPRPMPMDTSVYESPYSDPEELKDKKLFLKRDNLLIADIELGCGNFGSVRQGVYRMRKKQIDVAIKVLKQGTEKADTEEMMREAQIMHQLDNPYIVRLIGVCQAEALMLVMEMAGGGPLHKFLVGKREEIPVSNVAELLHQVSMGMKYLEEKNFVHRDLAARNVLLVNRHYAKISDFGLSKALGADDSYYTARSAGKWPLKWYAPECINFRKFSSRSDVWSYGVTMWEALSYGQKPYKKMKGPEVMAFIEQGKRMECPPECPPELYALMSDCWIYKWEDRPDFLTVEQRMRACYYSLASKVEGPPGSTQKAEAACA
Method in brief: as §1

IGFR-1 = target: T8, IGFR-1 (Homo sapiens, UniProt P08069); assay: Kinase inhibition assay, IGFR-1 (Table 2); details: Table 2, kinase inhibition class
T8 construct: Kinases are expressed as either kinase domains or full length constructs; made in house

AKT = target: T9, AKT (Homo sapiens, UniProt Q9Y243); assay: Kinase inhibition assay (33P transfer), AKT; details: Table 2, kinase inhibition class; read-out: AKT3-1
T9 construct: Kinases are expressed as either kinase domains or full length constructs; made in house
Method in brief: as §1

c-Met = target: T10, c-Met (Homo sapiens, UniProt P08581); assay: Kinase inhibition assay (33P transfer), c-Met; details: Table 2, kinase inhibition class; read-out: Met-1
T10 construct: Kinases are expressed as either kinase domains or full length constructs; made in house
Method in brief: as §2

T10 sequence (P08581 25-1390): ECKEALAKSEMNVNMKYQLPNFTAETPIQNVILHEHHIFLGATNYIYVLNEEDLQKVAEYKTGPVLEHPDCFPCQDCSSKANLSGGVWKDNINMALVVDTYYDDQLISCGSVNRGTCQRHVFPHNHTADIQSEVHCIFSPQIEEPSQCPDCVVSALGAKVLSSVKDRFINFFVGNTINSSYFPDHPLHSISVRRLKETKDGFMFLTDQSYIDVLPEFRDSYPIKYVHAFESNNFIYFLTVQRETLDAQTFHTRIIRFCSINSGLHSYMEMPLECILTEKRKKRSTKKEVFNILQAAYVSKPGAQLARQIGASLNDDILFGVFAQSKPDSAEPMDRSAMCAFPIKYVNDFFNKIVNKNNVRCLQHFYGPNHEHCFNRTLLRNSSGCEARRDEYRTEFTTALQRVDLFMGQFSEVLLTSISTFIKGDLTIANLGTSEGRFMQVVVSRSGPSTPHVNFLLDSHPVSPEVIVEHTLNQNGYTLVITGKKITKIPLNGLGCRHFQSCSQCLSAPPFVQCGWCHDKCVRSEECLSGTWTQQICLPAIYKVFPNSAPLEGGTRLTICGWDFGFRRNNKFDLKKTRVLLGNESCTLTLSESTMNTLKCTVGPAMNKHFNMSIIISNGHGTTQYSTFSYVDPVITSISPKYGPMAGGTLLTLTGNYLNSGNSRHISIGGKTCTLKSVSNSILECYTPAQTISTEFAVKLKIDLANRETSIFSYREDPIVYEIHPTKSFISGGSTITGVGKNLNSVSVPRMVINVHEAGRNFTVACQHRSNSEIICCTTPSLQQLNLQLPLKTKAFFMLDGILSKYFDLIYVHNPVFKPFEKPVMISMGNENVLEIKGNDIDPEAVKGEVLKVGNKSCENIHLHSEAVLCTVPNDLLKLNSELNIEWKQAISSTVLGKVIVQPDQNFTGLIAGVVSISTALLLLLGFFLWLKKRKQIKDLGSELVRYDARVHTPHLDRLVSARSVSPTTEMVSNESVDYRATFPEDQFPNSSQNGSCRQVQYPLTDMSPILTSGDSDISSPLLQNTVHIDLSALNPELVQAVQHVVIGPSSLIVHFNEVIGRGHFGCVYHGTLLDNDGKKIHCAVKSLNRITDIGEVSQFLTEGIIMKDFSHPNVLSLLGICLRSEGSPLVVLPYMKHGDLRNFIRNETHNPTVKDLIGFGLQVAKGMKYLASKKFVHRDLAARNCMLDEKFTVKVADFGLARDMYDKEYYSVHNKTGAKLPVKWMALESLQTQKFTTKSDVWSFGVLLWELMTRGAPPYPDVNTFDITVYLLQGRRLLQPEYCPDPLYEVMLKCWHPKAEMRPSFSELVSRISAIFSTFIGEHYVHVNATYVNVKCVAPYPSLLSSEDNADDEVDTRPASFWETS
T3 sequence (P09619 33-1106, species assumed): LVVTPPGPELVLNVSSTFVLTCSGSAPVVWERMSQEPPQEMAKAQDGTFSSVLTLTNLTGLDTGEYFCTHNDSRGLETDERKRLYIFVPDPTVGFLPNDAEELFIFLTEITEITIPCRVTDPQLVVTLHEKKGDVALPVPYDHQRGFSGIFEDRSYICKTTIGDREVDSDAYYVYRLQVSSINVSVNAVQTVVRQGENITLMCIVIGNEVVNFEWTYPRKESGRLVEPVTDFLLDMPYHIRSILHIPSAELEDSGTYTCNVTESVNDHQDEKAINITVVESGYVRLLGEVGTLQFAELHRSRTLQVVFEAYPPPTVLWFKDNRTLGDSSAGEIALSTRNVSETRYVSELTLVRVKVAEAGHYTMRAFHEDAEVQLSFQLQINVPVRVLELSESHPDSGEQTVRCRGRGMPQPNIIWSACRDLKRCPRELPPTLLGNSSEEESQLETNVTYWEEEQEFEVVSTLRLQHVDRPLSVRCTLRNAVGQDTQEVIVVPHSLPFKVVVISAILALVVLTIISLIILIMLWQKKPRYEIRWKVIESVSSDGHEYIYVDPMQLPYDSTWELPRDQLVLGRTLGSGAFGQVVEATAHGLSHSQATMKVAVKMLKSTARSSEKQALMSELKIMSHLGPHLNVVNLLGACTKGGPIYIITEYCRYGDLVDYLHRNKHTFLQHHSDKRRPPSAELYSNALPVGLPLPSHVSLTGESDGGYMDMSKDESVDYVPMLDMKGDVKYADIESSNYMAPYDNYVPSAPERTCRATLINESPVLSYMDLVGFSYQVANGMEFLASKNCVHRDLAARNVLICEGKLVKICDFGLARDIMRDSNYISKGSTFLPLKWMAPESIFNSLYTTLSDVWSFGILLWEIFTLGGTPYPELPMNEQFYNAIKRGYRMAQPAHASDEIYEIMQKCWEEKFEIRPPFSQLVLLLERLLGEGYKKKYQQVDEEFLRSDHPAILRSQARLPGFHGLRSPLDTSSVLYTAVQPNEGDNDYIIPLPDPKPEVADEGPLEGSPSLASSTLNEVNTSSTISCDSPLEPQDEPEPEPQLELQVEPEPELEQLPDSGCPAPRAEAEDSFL
T9 sequence (Q9Y243 whole entry, the tested form may be a part): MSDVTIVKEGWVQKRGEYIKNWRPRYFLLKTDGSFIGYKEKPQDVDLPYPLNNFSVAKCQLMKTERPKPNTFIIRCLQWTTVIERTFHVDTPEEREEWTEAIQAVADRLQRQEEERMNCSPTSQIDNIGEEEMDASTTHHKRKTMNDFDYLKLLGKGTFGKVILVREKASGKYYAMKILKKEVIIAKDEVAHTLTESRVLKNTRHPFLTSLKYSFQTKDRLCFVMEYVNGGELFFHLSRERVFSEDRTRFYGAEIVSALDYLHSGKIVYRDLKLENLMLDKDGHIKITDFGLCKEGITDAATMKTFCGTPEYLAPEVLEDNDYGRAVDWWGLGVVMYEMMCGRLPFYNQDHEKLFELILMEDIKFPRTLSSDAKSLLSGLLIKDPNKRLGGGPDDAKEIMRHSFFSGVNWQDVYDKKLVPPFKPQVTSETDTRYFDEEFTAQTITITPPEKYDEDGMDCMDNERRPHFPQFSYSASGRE
T1 sequence (P04626 23-1255, species assumed): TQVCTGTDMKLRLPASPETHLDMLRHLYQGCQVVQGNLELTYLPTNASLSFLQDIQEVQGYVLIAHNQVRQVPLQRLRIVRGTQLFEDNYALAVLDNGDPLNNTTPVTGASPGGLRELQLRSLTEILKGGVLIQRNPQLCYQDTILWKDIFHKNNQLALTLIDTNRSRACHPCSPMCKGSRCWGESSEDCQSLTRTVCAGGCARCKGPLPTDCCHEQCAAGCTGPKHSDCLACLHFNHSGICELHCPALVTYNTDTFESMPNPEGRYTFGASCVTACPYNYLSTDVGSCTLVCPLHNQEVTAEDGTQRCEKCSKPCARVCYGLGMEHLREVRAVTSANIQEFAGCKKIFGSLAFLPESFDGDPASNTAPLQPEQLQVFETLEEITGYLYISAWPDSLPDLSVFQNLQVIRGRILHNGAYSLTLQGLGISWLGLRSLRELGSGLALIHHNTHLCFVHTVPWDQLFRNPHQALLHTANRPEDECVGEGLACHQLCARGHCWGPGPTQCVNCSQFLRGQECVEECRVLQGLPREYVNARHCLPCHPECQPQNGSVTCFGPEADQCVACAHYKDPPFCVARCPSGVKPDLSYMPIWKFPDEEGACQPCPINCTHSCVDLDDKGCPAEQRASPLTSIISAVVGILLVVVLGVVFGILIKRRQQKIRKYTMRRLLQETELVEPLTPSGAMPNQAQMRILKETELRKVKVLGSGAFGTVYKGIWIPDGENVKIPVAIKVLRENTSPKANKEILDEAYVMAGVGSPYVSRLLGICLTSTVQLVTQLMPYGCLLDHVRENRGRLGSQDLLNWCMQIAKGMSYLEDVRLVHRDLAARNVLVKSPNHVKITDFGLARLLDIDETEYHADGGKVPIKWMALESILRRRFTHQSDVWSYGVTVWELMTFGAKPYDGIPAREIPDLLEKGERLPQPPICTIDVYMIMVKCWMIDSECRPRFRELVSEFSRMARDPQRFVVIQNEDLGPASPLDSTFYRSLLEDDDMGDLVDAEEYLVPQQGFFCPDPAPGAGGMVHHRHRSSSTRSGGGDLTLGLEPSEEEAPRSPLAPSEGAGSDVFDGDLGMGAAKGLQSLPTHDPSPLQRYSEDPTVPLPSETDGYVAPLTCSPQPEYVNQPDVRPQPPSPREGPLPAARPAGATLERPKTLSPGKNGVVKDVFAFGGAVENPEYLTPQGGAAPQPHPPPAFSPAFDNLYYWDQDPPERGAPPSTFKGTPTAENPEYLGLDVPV
T6 sequence (P06239 whole entry, species assumed, the tested form may be a part): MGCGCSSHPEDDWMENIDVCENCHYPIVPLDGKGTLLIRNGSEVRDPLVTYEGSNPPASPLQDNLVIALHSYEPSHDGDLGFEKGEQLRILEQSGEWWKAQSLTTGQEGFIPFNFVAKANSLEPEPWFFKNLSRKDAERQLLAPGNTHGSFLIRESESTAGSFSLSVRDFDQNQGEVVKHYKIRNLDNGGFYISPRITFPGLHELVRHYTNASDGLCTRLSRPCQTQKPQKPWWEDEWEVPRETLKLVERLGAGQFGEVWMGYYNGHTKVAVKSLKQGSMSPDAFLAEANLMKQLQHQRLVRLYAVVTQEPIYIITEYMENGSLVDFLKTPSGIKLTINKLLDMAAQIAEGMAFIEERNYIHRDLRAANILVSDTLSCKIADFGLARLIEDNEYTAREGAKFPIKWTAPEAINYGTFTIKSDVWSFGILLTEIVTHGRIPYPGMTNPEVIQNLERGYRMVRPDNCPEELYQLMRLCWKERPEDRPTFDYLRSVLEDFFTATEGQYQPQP

SMILES	IC50 (ErbB2)	IC50 (Kdr; KDR-1)	IC50 (PDGFRB)	IC50 (EGFR)	IC50 (Itk)	IC50 (Lck)	IC50 (Zap-70)	IC50 (IGFR-1)	IC50 (AKT)	IC50 (c-Met)	IC50 (Kdr; read-out: KDR-1)
COc1cc(Nc2ncnc(-n3c(NCc4ccc(O)cc4)nc4ccccc43)n2)cc(OC)c1OC [Compound 561]	> 9.01 µM	< 801 nM	< 0.801 µM	> 9.01 µM	> 9.01 µM	< 801 nM	> 9.01 µM	> 9.01 µM	> 9.01 µM	> 9.01 µM	
COc1cc(Nc2ncnc(Nc3cc(OC)c(OCCN4CCOCC4)c(OC)c3)n2)cc(OC)c1OC [Compound 562]	4.42 to 6.45 µM		4.42 to 6.45 µM	< 0.737 µM	> 8.29 µM	< 737 nM	> 8.29 µM	4.42 to 6.45 µM	> 8.29 µM	> 8.29 µM	4420 to 6450 nM
COc1cc(Nc2ncnc(NC3CC3c3ccccc3)n2)cc(OC)c1OCCN1CCOCC1 (stereo not shown) [Compound 563]	0.812 to 4.87 µM		0.812 to 4.87 µM	< 0.812 µM	> 9.14 µM	< 812 nM	> 9.14 µM	0.812 to 4.87 µM	> 9.14 µM	4.87 to 7.11 µM	812 to 4870 nM
COc1cc(Nc2ncnc(-c3cccnc3NCc3ccc(F)cc3)n2)cc(OC)c1OCCN1CCOCC1 [Compound 564]	> 8.01 µM		< 0.712 µM	4.27 to 6.23 µM	> 8.01 µM	< 712 nM	> 8.01 µM	> 8.01 µM	> 8.01 µM	> 8.01 µM	< 712 nM
COc1cc(Nc2ncnc(-c3cccnc3Cl)n2)cc(OC)c1OCCN1CCOCC1 [Compound 565]	> 9.52 µM		0.846 to 5.07 µM	> 9.52 µM	> 9.52 µM	846 to 5070 nM	> 9.52 µM	> 9.52 µM	> 9.52 µM	> 9.52 µM	5070 to 7400 nM
COc1cc(Nc2ncnc(N(C)c3ccc4c(cnn4Cc4ccccc4)c3)n2)cc(OC)c1OC [Compound 566]	< 0.804 µM		0.804 to 4.82 µM	< 0.804 µM	> 9.04 µM	< 804 nM	> 9.04 µM	7.03 to 9.04 µM	> 9.04 µM	0.804 to 4.82 µM	< 804 nM
COc1ccc(Nc2ncnc(N3CCCc4ccc(C)cc43)n2)cc1OC [Compound 567]	6.36 to 9.27 µM		1.06 to 6.36 µM	< 1.06 µM	> 11.9 µM	1060 to 6360 nM	> 11.9 µM	> 11.9 µM	> 11.9 µM	1.06 to 6.36 µM	< 1060 nM
COc1cc(Nc2ncnc(-n3c(NC(C)(C)c4ccccc4)nc4ccccc43)n2)cc(OC)c1OC [Compound 569]	> 8.8 µM		< 0.782 µM	> 8.8 µM	> 8.8 µM	< 782 nM	> 8.8 µM	> 8.8 µM	> 8.8 µM	> 8.8 µM	< 782 nM
COc1cc(Nc2ncnc(-n3c(NCc4ccc(OC(F)(F)F)cc4)nc4ccccc43)n2)cc(OC)c1OC [Compound 571]	4.23 to 6.17 µM		> 7.93 µM	> 7.93 µM	> 7.93 µM	> 7930 nM	> 7.93 µM	> 7.93 µM	> 7.93 µM	6.17 to 7.93 µM	> 7930 nM
COc1cc(Nc2ncnc(-n3c(NCc4cccc([N+](=O)[O-])c4)nc4ccccc43)n2)cc(OC)c1OC [Compound 572]	6.62 to 8.51 µM		< 0.757 µM	> 8.51 µM	> 8.51 µM	757 to 4540 nM	> 8.51 µM	> 8.51 µM	> 8.51 µM	6.62 to 8.51 µM	< 757 nM
NC(=O)Cc1ccc(Nc2ncnc(Nc3cc(-c4ccccc4)n[nH]3)n2)cc1 [Compound 573]	6.21 to 9.06 µM		1.04 to 6.21 µM	1.04 to 6.21 µM	1.04 to 6.21 µM	< 1040 nM	6.21 to 9.06 µM	< 1.04 µM	6.21 to 9.06 µM	1.04 to 6.21 µM	< 1040 nM
C=CCNc1nc2ccccc2n1-c1ncnc(Nc2cc(OC)c(OC)c(OC)c2)n1 [Compound 574]	> 10.4 µM		< 0.923 µM	> 10.4 µM	> 10.4 µM	< 923 nM	> 10.4 µM	0.923 to 5.54 µM	> 10.4 µM	> 10.4 µM	< 923 nM
COc1ccc(-c2cc(Nc3ncnc(Nc4ccc(CC(N)=O)cc4)n3)[nH]n2)cc1 [Compound 576]	> 10.8 µM		> 10.8 µM	0.961 to 5.76 µM	0.961 to 5.76 µM	< 961 nM	> 10.8 µM	< 0.961 µM	> 10.8 µM	< 0.961 µM	< 961 nM
COC(=O)c1ccc(-c2cc(Nc3ncnc(Nc4cccc(CC(N)=O)c4)n3)[nH]n2)cc1 [Compound 577]	7.87 to 10.1 µM		0.9 to 5.4 µM	7.87 to 10.1 µM	0.9 to 5.4 µM	900 to 5400 nM	> 10.1 µM	< 0.9 µM	> 10.1 µM	< 0.9 µM	900 to 5400 nM
NC(=O)Cc1cccc(Nc2ncnc(Nc3cc(-c4ccccc4)n[nH]3)n2)c1 [Compound 578]	1.04 to 6.21 µM		1.04 to 6.21 µM	< 1.04 µM	< 1.04 µM	< 1040 nM	> 11.6 µM	< 1.04 µM	> 11.6 µM	< 1.04 µM	< 1040 nM
COc1cc(Nc2ncnc(NC3CCc4ccccc43)n2)cc(OC)c1OC (stereo not shown) [Compound 581]	> 11.4 µM		6.1 to 8.9 µM	1.02 to 6.1 µM	> 11.4 µM	1020 to 6100 nM	> 11.4 µM	> 11.4 µM	> 11.4 µM	> 11.4 µM	8900 to 11400 nM

From US7074789B2, “Kinase inhibitors” (Amgen Inc., priority 1999, dated 2006)
